Measured values taken from ChEMBL document CHEMBL4152220, “Discovery of new benzensulfonamide derivatives as tripedal STAT3 inhibitors” (Eur J Med Chem, 2018).
The source made the active and inactive calls. The calls are words filed in the database; no cut-off is given here.

How the values were obtained:
[1] = target: T1, Signal transducer and activator of transcription 1-alpha/beta (Homo sapiens) (UniProt P42224); assay: Inhibition of STAT1 phosphorylation at Y701 residue in human HCT116 cells at 4 to 12 uM after 20 hrs by Western blot analysis; assay type: cell-based
T1 sequence (whole entry): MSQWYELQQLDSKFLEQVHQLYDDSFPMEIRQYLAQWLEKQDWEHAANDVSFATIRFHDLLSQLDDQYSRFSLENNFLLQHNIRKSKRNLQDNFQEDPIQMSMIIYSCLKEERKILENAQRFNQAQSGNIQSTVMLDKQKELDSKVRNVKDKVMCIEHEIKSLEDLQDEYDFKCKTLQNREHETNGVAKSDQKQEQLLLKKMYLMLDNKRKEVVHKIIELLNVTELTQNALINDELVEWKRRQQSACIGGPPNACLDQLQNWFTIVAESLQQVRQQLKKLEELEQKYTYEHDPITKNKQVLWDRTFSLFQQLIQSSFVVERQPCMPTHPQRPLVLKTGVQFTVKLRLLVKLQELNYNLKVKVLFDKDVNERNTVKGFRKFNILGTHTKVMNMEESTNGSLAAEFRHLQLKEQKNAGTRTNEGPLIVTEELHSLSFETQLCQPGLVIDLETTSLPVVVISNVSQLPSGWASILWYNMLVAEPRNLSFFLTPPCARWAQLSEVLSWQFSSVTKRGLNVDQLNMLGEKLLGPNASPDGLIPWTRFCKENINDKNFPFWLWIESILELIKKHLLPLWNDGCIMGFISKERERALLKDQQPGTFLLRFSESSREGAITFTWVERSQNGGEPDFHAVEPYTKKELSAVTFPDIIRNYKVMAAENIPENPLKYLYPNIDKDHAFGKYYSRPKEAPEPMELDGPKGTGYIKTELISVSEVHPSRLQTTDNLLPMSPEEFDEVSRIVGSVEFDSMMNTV

HCT-116 [2] = assay: Induction of apoptosis in human HCT116 cells assessed as early apoptotic cells at 4 uM after 20 hrs by Annexin V-APC/7-AAD staining-based flow cytometric analysis (reference value: 3.1%); assay type: functional
HCT-116 [3] = assay: Induction of apoptosis in human HCT116 cells after 20 hrs by Annexin V-APC/7-AAD staining-based flow cytometric analysis; assay type: functional, cell-based
Mus musculus [4] = assay: Toxicity in ICR mouse assessed as abnormal behavior at 10 to 80 mg/kg, ip measured up to 2 weeks post treatment; assay type: organism-based; settings: in vivo, 336 h
Mus musculus [5] = assay: In vivo inhibition of STAT3 in nude mouse xenografted with human HCT116 cells assessed as reduction in p-STAT3 (Y705) level at 10 to 20 mg/kg, ip dosed daily for 15 days by Western blot relative to untreated control; assay type: functional, organism-based
HCT-116 [6] = assay: Induction of apoptosis in human HCT116 cells assessed as increase in cleaved caspase9 level after 20 hrs by Western blot analysis; assay type: functional, cell-based
HCT-116 [7] = assay: Induction of apoptosis in human HCT116 cells assessed as necrotic cells at 8 uM after 20 hrs by Annexin V-APC/7-AAD staining-based flow cytometric analysis (reference value: 0.1%); assay type: functional
[8] = target: Signal transducer and activator of transcription 3 (Homo sapiens) (UniProt P40763); assay: Inhibition of STAT3 in human HCT116 cells assessed as decrease in cyclin D1 protein expression level after 20 hrs by Western blot analysis; assay type: cell-based
Sequence of Signal transducer and activator of transcription 3 (Homo sapiens) (P40763 whole entry): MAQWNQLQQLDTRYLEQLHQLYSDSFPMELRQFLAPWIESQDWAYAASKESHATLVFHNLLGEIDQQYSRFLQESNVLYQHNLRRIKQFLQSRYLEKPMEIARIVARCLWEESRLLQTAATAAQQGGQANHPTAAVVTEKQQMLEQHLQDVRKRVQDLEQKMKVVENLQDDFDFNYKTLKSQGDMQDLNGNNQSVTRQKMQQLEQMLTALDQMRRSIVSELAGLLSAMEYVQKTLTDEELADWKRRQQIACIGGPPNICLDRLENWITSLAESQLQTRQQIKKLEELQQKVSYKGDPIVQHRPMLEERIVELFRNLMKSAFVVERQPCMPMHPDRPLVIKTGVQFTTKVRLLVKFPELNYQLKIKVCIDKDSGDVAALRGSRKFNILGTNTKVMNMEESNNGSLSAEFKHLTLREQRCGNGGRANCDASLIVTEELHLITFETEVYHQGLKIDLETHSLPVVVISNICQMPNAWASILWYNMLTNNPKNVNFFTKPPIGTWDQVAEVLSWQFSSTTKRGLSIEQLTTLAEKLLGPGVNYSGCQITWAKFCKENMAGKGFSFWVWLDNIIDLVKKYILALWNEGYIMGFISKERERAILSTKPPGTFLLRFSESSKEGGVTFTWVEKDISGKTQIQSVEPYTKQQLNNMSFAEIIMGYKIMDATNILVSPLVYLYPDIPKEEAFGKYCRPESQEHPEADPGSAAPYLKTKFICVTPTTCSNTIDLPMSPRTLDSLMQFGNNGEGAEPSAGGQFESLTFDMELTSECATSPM

[9] = target: T2, Signal transducer and activator of transcription 5A (Homo sapiens) (UniProt P42229); assay: Inhibition of STAT5 phosphorylation at Y694 residue in human HCT116 cells at 4 to 12 uM after 20 hrs by Western blot analysis; assay type: cell-based
T2 sequence (whole entry): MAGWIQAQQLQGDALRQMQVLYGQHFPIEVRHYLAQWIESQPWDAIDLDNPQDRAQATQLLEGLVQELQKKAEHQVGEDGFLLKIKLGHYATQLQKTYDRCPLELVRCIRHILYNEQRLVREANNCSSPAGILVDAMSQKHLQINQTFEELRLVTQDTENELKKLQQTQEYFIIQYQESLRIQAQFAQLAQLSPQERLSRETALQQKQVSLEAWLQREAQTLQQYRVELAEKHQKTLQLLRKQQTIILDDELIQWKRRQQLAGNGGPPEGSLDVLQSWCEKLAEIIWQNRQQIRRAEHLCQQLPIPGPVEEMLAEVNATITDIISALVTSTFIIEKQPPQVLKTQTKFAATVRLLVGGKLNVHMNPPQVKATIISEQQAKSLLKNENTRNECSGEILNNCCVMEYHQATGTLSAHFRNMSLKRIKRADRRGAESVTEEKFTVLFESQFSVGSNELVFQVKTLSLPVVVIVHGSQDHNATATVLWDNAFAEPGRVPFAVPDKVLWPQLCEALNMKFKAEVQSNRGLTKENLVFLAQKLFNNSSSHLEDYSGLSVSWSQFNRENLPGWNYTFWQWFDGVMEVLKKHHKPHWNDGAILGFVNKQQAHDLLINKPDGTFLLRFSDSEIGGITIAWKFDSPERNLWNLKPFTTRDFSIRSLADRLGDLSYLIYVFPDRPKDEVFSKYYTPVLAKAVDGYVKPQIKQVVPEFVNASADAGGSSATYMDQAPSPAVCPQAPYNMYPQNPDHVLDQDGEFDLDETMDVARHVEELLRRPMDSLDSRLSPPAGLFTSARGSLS

HCT-116 [10] = assay: Antitumor activity against human HCT116 cells xenografted in nude mouse assessed as decrease in tumor weight at 20 mg/kg, ip dosed daily for 15 days relative to untreated control; assay type: functional; set-up: scale not given: the % may be the effect or the level left
HCT-116 [11] = assay: Induction of apoptosis in human HCT116 cells assessed as necrotic cells at 4 uM after 20 hrs by Annexin V-APC/7-AAD staining-based flow cytometric analysis (reference value: 0.1%); assay type: functional
[12] = target: Signal transducer and activator of transcription 3 (Homo sapiens) (UniProt P40763); assay: Inhibition of STAT3 phosphorylation at Y705 residue in human HCT116 cells at 10 uM after 20 hrs by Western blot analysis; assay type: cell-based

For `CC(C)c1ccc(CN(Cc2c(F)c(F)c(F)c(F)c2F)c2cccc(S(N)(=O)=O)c2)cc1`, the inhibition [1] was “inactive”, the Activity (HCT-116 [2]) was 7% and the Activity (HCT-116 [3]) was “Dose-dependent effect”. For the same compound, the Activity (Mus musculus [4]) was “Non-Toxic”, the inhibition (Mus musculus [5]) was “Active” and the Activity (HCT-116 [6]) was “Dose-dependent effect”. The Activity (HCT-116 [7]) was 0.3%, the inhibition [8] was “Dose-dependent effect” and the inhibition [9] was “inactive”. The Activity (HCT-116 [10]) was 56.84%, the Activity (HCT-116 [11]) was 0.1% and the inhibition [12] was “Active”.
